Reference: PubChem BioAssay (NCI)
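In this assay, cells in 96-well plates receive the compound at five concentrations for 48 hours. Endpoints are linearly interpolated between the surrounding concentrations. TGI is the concentration that stops growth completely.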

Legend:
Experiment in all cases: growth of human tumour cells (NCI), 48 h
LOX IMVI melanoma = test system: LOX IMVI melanoma
DU-145 prostate = test system: DU-145 prostate
CAKI-1 renal = test system: CAKI-1 renal
BT-549 breast = test system: BT-549 breast
OVCAR-5 ovarian = test system: OVCAR-5 ovarian
SK-MEL-28 melanoma = test system: SK-MEL-28 melanoma
MDA-N = test system: MDA-N
HL-60(TB) leukemia = test system: HL-60(TB) leukemia
COLO 205 colon = test system: COLO 205 colon
HCC-2998 colon = test system: HCC-2998 colon
NCI-H23 lung = test system: NCI-H23 lung
SF-295 CNS = test system: SF-295 CNS
UO-31 renal = test system: UO-31 renal
OVCAR-8 ovarian = test system: OVCAR-8 ovarian
MALME-3M melanoma = test system: MALME-3M melanoma
MDA-MB-435 = test system: MDA-MB-435
U251 CNS = test system: U251 CNS
HOP-92 NSCLC = test system: HOP-92 NSCLC

## N#Cc1cc2c(cc1C#N)/C(=N\c1cccc(N)n1)N=C2Nc1cccc(N)n1
LOX IMVI melanoma
  TGI: > 100 µM
DU-145 prostate
  TGI: > 100 µM
CAKI-1 renal
  TGI: 34.1 µM
BT-549 breast
  TGI: 84.3 µM
OVCAR-5 ovarian
  TGI: > 100 µM
SK-MEL-28 melanoma
  TGI: 48.7 µM
MDA-N
  TGI: 59.6 µM
HL-60(TB) leukemia
  TGI: > 100 µM
COLO 205 colon
  TGI: 51.9 µM
HCC-2998 colon
  TGI: 57.5 µM
NCI-H23 lung
  TGI: 40.1 µM
SF-295 CNS
  TGI: > 100 µM
UO-31 renal
  TGI: 47 µM
OVCAR-8 ovarian
  TGI: > 100 µM
MALME-3M melanoma
  TGI: 84.1 µM
MDA-MB-435
  TGI: 59.7 µM
U251 CNS
  TGI: > 100 µM

## Cc1cc(C)c2c(n1)S(=O)(=O)N(CCCN1CCN(c3cccc(Cl)c3)CC1)/C(=C(\O)c1ccccc1)C2=O
LOX IMVI melanoma
  TGI: > 100 µM
DU-145 prostate
  TGI: > 100 µM
CAKI-1 renal
  TGI: 62.2 µM
BT-549 breast
  TGI: > 100 µM
OVCAR-5 ovarian
  TGI: > 100 µM
SK-MEL-28 melanoma
  TGI: > 100 µM
HOP-92 NSCLC
  TGI: 77.4 µM
MDA-N
  TGI: > 100 µM
HL-60(TB) leukemia
  TGI: 71 µM
COLO 205 colon
  TGI: 36.9 µM
NCI-H23 lung
  TGI: 89.1 µM
SF-295 CNS
  TGI: 95.9 µM
UO-31 renal
  TGI: 74 µM
OVCAR-8 ovarian
  TGI: > 100 µM
MALME-3M melanoma
  TGI: > 100 µM
MDA-MB-435
  TGI: > 100 µM
U251 CNS
  TGI: > 100 µM

## CNCCN[C@@H]1c2cc3c(cc2[C@@H](c2cc(OC)c(O)c(OC)c2)[C@H]2C(=O)OC[C@@H]21)OCO3
LOX IMVI melanoma
  TGI: 1.35 µM
DU-145 prostate
  TGI: 1.57 µM
CAKI-1 renal
  TGI: 6.86 µM
BT-549 breast
  TGI: 0.814 µM
OVCAR-5 ovarian
  TGI: 4.63 µM
SK-MEL-28 melanoma
  TGI: 3.31 µM
MDA-N
  TGI: 3.26 µM
HL-60(TB) leukemia
  TGI: 0.0483 µM
COLO 205 colon
  TGI: 12 µM
HCC-2998 colon
  TGI: 3.79 µM
NCI-H23 lung
  TGI: 1.54 µM
SF-295 CNS
  TGI: 1.07 µM
UO-31 renal
  TGI: 4.96 µM
OVCAR-8 ovarian
  TGI: 2.22 µM
MALME-3M melanoma
  TGI: 1.83 µM
MDA-MB-435
  TGI: 6.32 µM
U251 CNS
  TGI: 2.13 µM

## C=C1[C@H]2O[C@H]2[C@@H](OC(C)=O)[C@@]2(C)[C@@H](OC(C)=O)C[C@@H](OC(=O)CCC)[C@@](C)(O)[C@@H]2[C@@H](OC(C)=O)[C@]2(O)[C@@H](C)C(=O)O[C@H]2[C@H]1Cl
DU-145 prostate
  TGI: > 100 µM
CAKI-1 renal
  TGI: > 100 µM
BT-549 breast
  TGI: > 100 µM
OVCAR-5 ovarian
  TGI: > 100 µM
SK-MEL-28 melanoma
  TGI: > 100 µM
HOP-92 NSCLC
  TGI: > 100 µM
MDA-N
  TGI: > 100 µM
HL-60(TB) leukemia
  TGI: > 100 µM
COLO 205 colon
  TGI: > 100 µM
HCC-2998 colon
  TGI: > 100 µM
NCI-H23 lung
  TGI: > 100 µM
SF-295 CNS
  TGI: > 100 µM
UO-31 renal
  TGI: > 100 µM
OVCAR-8 ovarian
  TGI: > 100 µM
MALME-3M melanoma
  TGI: > 100 µM
MDA-MB-435
  TGI: > 100 µM
U251 CNS
  TGI: > 100 µM

## O=C1c2c(Br)sc(Br)c2[C@@H](Cl)[C@H]1Cl
LOX IMVI melanoma
  TGI: 51 µM
DU-145 prostate
  TGI: 35.9 µM
CAKI-1 renal
  TGI: 38.8 µM
BT-549 breast
  TGI: 39.3 µM
OVCAR-5 ovarian
  TGI: 43 µM
SK-MEL-28 melanoma
  TGI: 59.3 µM
HOP-92 NSCLC
  TGI: 42.5 µM
MDA-N
  TGI: 40.3 µM
HL-60(TB) leukemia
  TGI: 20.5 µM
COLO 205 colon
  TGI: 31.8 µM
NCI-H23 lung
  TGI: 94 µM
SF-295 CNS
  TGI: 40.7 µM
UO-31 renal
  TGI: 40.4 µM
OVCAR-8 ovarian
  TGI: 42.5 µM
MALME-3M melanoma
  TGI: 82.7 µM
MDA-MB-435
  TGI: 43.8 µM
U251 CNS
  TGI: 34.8 µM

## COc1ccc2c(c1)CC1COc3cc(OC)ccc3C1O2 (stereo not drawn)
LOX IMVI melanoma
  TGI: > 100 µM
DU-145 prostate
  TGI: > 100 µM
CAKI-1 renal
  TGI: > 100 µM
BT-549 breast
  TGI: > 100 µM
OVCAR-5 ovarian
  TGI: > 100 µM
HOP-92 NSCLC
  TGI: > 100 µM
MDA-N
  TGI: > 100 µM
COLO 205 colon
  TGI: > 100 µM
HCC-2998 colon
  TGI: > 100 µM
NCI-H23 lung
  TGI: > 100 µM
SF-295 CNS
  TGI: > 100 µM
UO-31 renal
  TGI: > 100 µM
OVCAR-8 ovarian
  TGI: > 100 µM
MALME-3M melanoma
  TGI: > 100 µM
MDA-MB-435
  TGI: > 100 µM
U251 CNS
  TGI: > 100 µM

## c1ccc2c(c1)nc1n2CSCC1
LOX IMVI melanoma
  TGI: > 100 µM
DU-145 prostate
  TGI: > 100 µM
CAKI-1 renal
  TGI: > 100 µM
BT-549 breast
  TGI: > 100 µM
OVCAR-5 ovarian
  TGI: > 100 µM
SK-MEL-28 melanoma
  TGI: > 100 µM
HOP-92 NSCLC
  TGI: > 100 µM
MDA-N
  TGI: > 100 µM
HL-60(TB) leukemia
  TGI: > 100 µM
COLO 205 colon
  TGI: > 100 µM
HCC-2998 colon
  TGI: > 100 µM
NCI-H23 lung
  TGI: > 100 µM
SF-295 CNS
  TGI: > 100 µM
UO-31 renal
  TGI: > 100 µM
OVCAR-8 ovarian
  TGI: > 100 µM
MDA-MB-435
  TGI: > 100 µM
U251 CNS
  TGI: > 100 µM
